Test results taken from ChEMBL document CHEMBL4622846, “Synthesis and cytotoxic effects of 2-thio-3,4-dihydroquinazoline derivatives as novel T-type calcium channel blockers” (Bioorg Med Chem, 2020).
Active and inactive are the calls of the source. The rule behind the calls is not given here.

Tests used:
[1] = test system: HCT-116; experiment: Cytotoxicity against human HCT116 cells assessed as reduction in cell viability after 48 hrs by MTT assay; type: functional, cell-based; conditions: HCT-116, 48 h
[2] = biological target: T1, Voltage-dependent T-type calcium channel subunit alpha-1G (Homo sapiens, UniProt O43497); experiment: Inhibition of human Cav3.1 expressed in tsA-201 cells at 10uM by patch clamp electrophysiology; type: cell-based
[3] = biological target: T2, Voltage-dependent T-type calcium channel subunit alpha-1H (Homo sapiens, UniProt O95180); experiment: Inhibition of human Cav3.2 expressed in tsA-201 cells by patch clamp electrophysiology; type: cell-based
T2 sequence (O95180 whole entry): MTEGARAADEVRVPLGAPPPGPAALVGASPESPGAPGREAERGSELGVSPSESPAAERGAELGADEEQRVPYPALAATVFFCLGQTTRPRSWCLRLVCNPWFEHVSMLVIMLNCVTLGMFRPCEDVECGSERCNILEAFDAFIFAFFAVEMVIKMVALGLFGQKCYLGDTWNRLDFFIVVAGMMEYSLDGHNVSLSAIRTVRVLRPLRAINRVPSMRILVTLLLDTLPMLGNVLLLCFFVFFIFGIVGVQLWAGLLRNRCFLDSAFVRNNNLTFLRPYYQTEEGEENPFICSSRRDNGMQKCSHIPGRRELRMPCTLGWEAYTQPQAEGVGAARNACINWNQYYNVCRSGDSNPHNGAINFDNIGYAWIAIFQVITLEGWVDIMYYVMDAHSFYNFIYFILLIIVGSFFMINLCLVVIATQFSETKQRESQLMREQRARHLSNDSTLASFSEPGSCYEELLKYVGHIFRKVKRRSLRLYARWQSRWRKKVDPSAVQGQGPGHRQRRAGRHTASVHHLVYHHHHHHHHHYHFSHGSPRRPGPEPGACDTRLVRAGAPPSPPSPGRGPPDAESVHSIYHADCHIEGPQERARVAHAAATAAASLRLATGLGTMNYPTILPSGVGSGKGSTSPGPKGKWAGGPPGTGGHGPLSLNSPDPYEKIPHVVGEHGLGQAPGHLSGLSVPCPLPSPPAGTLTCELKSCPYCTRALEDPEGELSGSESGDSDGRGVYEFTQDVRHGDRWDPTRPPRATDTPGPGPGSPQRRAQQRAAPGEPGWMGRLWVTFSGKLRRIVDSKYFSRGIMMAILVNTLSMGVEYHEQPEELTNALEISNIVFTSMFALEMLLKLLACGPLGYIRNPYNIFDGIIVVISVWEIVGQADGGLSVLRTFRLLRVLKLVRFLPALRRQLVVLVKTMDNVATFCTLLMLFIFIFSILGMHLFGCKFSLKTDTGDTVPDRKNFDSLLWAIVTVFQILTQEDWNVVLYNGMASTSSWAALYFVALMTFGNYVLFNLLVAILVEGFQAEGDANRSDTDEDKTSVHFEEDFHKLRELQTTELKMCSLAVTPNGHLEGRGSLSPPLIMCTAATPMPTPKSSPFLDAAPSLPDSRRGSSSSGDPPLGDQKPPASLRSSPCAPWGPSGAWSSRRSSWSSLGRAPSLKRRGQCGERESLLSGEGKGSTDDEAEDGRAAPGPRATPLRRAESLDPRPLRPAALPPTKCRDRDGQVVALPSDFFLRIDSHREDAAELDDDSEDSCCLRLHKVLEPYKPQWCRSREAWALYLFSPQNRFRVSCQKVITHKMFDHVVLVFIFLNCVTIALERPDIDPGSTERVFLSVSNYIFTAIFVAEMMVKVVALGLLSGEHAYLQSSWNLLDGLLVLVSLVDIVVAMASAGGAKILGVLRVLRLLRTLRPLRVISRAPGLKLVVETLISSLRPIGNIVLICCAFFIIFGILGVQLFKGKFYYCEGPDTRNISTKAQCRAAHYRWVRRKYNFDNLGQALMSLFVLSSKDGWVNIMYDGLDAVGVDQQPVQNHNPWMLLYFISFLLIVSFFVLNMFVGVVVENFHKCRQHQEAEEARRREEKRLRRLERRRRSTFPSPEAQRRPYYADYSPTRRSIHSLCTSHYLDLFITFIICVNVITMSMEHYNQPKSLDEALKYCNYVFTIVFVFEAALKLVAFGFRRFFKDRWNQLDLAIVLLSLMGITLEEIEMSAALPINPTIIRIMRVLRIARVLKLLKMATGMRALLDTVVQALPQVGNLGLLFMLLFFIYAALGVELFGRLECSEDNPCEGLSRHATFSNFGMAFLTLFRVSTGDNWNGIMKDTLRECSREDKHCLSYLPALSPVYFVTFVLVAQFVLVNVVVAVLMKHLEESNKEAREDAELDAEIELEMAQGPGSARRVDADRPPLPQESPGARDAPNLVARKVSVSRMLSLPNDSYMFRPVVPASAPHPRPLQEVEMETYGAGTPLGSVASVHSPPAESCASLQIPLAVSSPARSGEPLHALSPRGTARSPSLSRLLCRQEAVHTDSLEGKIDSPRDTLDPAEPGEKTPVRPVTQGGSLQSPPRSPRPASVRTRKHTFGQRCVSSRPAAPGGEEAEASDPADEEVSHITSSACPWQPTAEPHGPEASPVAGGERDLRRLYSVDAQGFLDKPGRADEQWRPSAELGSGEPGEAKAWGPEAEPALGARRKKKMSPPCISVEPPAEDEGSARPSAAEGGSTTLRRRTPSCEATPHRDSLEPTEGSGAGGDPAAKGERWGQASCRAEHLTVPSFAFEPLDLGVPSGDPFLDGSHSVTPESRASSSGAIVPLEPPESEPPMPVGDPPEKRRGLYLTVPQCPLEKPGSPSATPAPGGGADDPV

[4] = test system: A549; experiment: Cytotoxicity against human A549 cells assessed as reduction in cell viability after 48 hrs by MTT assay; type: functional, cell-based; conditions: A549, 48 h
[5] = biological target: T1, Voltage-dependent T-type calcium channel subunit alpha-1G; experiment: Inhibition of human Cav3.1 expressed in tsA-201 cells by patch clamp electrophysiology; type: cell-based
[6] = biological target: T3, Voltage-dependent T-type calcium channel subunit alpha-1I (Homo sapiens, UniProt Q9P0X4); experiment: Inhibition of human Cav3.3 expressed in tsA-201 cells at 10uM by patch clamp electrophysiology; type: cell-based
T3 sequence (Q9P0X4 whole entry): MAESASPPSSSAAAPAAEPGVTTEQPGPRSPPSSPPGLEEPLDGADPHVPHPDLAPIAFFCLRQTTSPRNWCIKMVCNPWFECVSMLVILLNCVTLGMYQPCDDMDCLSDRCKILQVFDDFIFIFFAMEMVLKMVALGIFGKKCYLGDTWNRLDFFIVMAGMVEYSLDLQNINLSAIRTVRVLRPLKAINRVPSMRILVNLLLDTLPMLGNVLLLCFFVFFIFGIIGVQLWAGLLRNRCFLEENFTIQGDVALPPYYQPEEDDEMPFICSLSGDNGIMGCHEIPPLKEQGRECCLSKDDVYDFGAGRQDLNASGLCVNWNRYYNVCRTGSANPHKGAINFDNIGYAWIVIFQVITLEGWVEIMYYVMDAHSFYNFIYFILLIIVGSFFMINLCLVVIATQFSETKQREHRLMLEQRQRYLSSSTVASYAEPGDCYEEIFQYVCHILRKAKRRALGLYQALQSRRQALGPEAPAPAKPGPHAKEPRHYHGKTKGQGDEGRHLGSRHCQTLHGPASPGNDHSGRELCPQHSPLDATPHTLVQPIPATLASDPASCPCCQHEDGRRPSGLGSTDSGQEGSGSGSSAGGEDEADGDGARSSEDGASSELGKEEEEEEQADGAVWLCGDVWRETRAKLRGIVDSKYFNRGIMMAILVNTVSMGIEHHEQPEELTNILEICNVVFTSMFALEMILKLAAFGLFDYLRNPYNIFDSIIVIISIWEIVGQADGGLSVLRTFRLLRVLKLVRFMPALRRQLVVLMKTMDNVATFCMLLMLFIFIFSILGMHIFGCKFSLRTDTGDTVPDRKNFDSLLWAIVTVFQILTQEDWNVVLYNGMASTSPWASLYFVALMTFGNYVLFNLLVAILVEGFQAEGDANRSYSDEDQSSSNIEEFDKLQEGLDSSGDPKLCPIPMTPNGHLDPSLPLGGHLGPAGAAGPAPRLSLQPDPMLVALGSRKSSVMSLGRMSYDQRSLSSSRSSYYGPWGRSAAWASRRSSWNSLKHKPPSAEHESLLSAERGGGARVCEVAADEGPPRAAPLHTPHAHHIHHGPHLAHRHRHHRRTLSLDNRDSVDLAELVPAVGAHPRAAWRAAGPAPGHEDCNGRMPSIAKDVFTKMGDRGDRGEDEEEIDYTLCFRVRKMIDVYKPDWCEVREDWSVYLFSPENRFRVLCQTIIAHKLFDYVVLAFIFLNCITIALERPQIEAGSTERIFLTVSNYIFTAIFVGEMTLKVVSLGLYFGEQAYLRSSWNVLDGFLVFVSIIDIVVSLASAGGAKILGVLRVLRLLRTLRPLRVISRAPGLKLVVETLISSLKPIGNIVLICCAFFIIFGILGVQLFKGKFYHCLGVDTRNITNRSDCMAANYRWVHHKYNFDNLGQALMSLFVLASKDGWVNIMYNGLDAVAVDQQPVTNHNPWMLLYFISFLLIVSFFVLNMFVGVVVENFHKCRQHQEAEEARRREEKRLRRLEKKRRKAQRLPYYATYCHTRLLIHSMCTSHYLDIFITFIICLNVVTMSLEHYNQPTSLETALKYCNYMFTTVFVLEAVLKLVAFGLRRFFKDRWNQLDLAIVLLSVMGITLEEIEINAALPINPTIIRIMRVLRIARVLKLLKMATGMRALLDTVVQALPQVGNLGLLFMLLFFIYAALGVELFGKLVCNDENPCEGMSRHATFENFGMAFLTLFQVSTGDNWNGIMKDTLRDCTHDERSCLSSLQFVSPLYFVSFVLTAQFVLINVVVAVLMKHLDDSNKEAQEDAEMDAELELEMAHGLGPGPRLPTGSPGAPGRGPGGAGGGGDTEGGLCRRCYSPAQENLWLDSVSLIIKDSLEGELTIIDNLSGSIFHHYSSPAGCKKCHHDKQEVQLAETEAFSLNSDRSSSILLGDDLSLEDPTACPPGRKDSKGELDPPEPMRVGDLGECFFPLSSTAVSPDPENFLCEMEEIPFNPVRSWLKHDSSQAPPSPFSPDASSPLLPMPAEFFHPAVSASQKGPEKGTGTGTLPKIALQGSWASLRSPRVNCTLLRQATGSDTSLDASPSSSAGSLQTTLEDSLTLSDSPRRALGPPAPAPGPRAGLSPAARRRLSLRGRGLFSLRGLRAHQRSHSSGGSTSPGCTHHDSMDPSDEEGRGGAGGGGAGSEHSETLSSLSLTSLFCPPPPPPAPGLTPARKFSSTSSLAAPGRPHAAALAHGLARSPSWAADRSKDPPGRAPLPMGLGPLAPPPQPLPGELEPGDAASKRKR

[7] = biological target: T3, Voltage-dependent T-type calcium channel subunit alpha-1I; experiment: Inhibition of human Cav3.3 expressed in tsA-201 cells by patch clamp electrophysiology; type: cell-based
[8] = biological target: T2, Voltage-dependent T-type calcium channel subunit alpha-1H; experiment: Inhibition of human Cav3.2 expressed in tsA-201 cells at 10uM by patch clamp electrophysiology; type: cell-based

inhibition [2] [%]	IC50 [3] [µM]	IC50 [5] [µM]	inhibition [6]	IC50 ([7]; read-out: IC50) [µM]	inhibition [8] [%]	IC50 [7]	Structure (SMILES)	IC50 [1] [µM]	IC50 [4] [µM]
51.5	276	15	55.9%	13.6	69	–	O=C(CC1c2ccccc2N=C(SCCCCCN2CCCC2)N1c1ccc(-c2ccccc2)cc1)NCc1ccc(F)cc1 (stereo unspecified)	6.2	19.8
60.1	57.4	13.5	22.1%	–	40	–	O=C(CC1c2ccccc2N=C(SCCCCCN2CCCC2)N1c1ccccc1)NCc1ccc(F)cc1 (stereo unspecified)	27.1	89.9
76.2	2.4	7.77	85.6%	1.76	83.9	–	CN(C)CCCCCSC1=Nc2ccccc2C(CC(=O)NCc2ccccc2)N1c1ccc(-c2ccccc2)cc1 (stereo unspecified)	9.6	18.1
93.9	6.9	0.66	92.7%	0.81	73.1	–	O=C(CC1c2ccccc2N=C(SCCCCCN2CCCC2)N1c1ccc(-c2ccccc2)cc1)NCc1ccccc1 (stereo unspecified)	5.5	14.9
46.5	13.8	18.5	76%	3.2	51.8	–	CN(C)CCCCCSC1=Nc2ccccc2C(CC(=O)NCc2ccccc2)N1c1ccccc1 (stereo unspecified)	38.8	138
83.9	0.26	2.18	68.2%	5.1	97.5	–	O=C(CC1c2ccccc2N=C(SCCCCCN2CCCC2)N1c1ccc(-c2ccc(F)cc2)cc1)NCc1ccccc1 (stereo unspecified)	12.5	17.8
96.2	2.76	0.4	92%	0.96	84.8	–	CN(C)CCCCCSC1=Nc2ccccc2C(CC(=O)NCc2ccc(F)cc2)N1c1ccc(-c2ccc(F)cc2)cc1 (stereo unspecified)	9.3	11.3
26.7	832	–	inactive	–	7	Not Active	CN(C)CCCCCSC1=Nc2ccccc2C(CC(=O)NCc2ccc(F)cc2)N1c1ccccc1 (stereo unspecified)	38.8	36.8
60.4	7.71	77	78.3%	6.19	61.6	–	O=C(CC1c2ccccc2N=C(SCCCCCN2CCCC2)N1c1ccccc1)NCc1ccccc1 (stereo unspecified)	31.3	98.1
–	–	–	–	–	89.3	–	CN(C)CCCCCN(C)C1=Nc2ccccc2C(CC(=O)NCc2ccccc2)N1c1ccc(-c2ccccc2)cc1 (stereo unspecified)	5.6	–
31	3.14	27.4	69.3%	6.1	83.1	–	CN(C)CCCCCSC1=Nc2ccccc2C(CC(=O)NCc2ccc(F)cc2)N1c1ccc(-c2ccccc2)cc1 (stereo unspecified)	6.4	5
83.9	4.88	12.6	35.1%	19.8	76.6	–	O=C(CC1c2ccccc2N=C(SCCCCCN2CCCC2)N1c1ccc(-c2ccc(F)cc2)cc1)NCc1ccc(F)cc1 (stereo unspecified)	7.7	12.6
97.6	4.18	0.25	66.7%	9.06	75.6	–	CN(C)CCCCCSC1=Nc2ccccc2C(CC(=O)NCc2ccccc2)N1c1ccc(-c2ccc(F)cc2)cc1 (stereo unspecified)	9.2	17.6
